The source made the active and inactive calls.
Experiments:
[1] = molecular target: T1, Streptokinase A (Streptococcus pyogenes serotype M1, UniProt P10520); experiment: viability-normalized secreted streptokinase activity reduction – plasminogen activation absorbance, OD405, dose response (AID 1914); type: functional, Streptococcus pyogenes M1 GAS;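 further: secreted streptokinase activity via plasminogen activation per viability signal from cell pellet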
T1 sequence (P10520 whole entry): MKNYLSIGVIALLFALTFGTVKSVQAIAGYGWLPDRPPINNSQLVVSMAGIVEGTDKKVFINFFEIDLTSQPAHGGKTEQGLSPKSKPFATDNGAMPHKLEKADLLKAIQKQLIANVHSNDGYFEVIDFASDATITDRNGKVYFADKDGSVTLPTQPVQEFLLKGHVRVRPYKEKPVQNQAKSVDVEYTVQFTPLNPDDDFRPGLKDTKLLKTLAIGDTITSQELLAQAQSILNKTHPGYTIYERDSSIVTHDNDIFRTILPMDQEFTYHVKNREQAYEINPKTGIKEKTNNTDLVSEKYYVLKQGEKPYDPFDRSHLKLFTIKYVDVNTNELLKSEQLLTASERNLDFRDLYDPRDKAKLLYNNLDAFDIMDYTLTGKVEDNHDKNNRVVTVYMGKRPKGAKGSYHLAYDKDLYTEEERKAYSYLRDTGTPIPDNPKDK

[2] = microbe, parasite or virus in culture; type: functional; conditions: Mycobacterium tuberculosis
[3] = molecular target: T2, Sentrin-specific protease 7 (Homo sapiens, UniProt Q9BQF6); type: functional;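 further: Luminescence-based dose-response confirmation of ultra-high-throughput screening hits, measuring inhibition of SENP7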
T2 sequence (Q9BQF6 whole entry): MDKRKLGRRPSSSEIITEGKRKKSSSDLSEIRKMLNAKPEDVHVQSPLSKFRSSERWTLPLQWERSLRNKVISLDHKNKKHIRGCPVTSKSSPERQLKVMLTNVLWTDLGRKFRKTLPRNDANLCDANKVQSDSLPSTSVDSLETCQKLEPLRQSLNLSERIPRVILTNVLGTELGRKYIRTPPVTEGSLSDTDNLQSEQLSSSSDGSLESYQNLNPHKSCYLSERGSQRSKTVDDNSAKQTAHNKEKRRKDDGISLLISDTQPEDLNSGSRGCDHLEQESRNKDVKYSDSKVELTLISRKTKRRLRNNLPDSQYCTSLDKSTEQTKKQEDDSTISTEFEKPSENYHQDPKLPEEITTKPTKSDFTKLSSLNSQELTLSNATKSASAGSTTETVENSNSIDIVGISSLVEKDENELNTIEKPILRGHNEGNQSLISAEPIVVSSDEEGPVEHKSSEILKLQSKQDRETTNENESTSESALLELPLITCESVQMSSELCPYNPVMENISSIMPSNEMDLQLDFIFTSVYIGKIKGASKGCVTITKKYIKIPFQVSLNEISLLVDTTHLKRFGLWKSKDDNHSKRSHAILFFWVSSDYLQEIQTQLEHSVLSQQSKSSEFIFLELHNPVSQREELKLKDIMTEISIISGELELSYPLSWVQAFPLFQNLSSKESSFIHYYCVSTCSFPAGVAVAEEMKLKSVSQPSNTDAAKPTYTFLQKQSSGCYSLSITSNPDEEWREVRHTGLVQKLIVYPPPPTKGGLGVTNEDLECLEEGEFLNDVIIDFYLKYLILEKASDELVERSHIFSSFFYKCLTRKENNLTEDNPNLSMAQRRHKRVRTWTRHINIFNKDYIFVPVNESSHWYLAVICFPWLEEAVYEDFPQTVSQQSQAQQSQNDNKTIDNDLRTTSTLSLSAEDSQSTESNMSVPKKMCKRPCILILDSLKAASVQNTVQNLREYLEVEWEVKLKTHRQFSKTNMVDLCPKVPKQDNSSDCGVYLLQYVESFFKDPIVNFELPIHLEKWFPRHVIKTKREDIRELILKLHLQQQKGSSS

[4] = molecular target: T3, Sentrin-specific protease 6 (Homo sapiens, UniProt Q9GZR1); type: functional;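 further: Luminescence-based dose-response confirmatory assay of SENP6 inhibition, following up an ultra-high-throughput screen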
T3 sequence (Q9GZR1 whole entry): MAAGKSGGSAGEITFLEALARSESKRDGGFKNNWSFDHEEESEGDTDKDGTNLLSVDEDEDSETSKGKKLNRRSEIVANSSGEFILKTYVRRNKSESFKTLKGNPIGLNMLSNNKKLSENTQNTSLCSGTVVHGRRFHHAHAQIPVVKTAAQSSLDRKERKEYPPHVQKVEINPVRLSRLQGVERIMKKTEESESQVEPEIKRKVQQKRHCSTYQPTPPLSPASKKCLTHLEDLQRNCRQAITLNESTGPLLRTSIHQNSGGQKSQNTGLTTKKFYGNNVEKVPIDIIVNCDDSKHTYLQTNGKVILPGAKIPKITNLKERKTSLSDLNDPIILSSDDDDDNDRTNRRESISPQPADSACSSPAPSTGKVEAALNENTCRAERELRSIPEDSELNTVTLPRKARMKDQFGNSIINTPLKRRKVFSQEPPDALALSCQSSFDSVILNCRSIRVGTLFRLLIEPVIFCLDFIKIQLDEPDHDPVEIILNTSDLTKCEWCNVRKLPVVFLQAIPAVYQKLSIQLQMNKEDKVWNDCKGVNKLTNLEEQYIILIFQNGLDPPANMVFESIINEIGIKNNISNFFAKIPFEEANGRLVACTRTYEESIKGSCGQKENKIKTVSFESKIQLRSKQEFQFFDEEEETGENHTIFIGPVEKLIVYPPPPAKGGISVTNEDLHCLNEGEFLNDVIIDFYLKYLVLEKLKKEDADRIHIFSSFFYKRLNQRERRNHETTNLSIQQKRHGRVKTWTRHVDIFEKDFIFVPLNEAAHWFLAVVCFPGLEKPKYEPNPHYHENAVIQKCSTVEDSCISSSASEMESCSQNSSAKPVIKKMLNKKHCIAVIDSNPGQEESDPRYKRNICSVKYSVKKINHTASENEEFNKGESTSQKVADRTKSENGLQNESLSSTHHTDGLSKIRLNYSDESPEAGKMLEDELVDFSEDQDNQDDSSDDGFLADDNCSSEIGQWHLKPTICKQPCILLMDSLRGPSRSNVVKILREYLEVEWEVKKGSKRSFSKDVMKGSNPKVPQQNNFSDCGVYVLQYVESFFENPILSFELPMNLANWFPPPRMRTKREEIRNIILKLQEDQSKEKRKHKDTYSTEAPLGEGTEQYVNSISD

[5] = molecular target: Large T antigen (Simian virus 40, UniProt P03070); type: functional, Betapolyomavirus macacae;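 further: Confirmatory-stage PubChem screen for compounds that inhibit SV40 T antigen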
Chain of Large T antigen (P03070 whole entry): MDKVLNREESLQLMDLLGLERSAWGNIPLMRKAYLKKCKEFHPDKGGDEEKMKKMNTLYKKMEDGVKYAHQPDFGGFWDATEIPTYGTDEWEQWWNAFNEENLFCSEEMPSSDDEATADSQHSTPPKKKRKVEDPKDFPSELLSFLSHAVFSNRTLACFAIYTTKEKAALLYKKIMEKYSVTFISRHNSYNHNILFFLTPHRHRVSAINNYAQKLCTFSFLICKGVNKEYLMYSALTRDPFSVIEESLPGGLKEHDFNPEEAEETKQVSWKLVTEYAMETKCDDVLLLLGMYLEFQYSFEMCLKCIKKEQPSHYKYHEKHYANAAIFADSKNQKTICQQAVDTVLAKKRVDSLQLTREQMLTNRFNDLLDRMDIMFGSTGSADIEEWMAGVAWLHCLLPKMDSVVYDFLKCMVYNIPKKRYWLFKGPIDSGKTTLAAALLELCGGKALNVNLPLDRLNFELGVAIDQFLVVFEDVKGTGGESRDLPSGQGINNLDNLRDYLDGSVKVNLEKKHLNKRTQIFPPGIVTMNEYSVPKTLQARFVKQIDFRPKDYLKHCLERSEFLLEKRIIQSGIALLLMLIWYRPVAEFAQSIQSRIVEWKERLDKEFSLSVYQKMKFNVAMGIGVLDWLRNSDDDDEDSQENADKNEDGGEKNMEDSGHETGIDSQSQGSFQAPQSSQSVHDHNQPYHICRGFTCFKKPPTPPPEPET

[6] = reduction of Shn3 3'UTR-driven luciferase in osteoblasts – cell-based, Clone20 osteoblasts, firefly luciferase, cherry-picked, dose response (AID 624132); type: functional;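 further: firefly luciferase luminescence from reporter carrying the Shn3 3'UTR in osteoblasts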
[7] = molecular target: T4, Fatty acid synthase (Homo sapiens, UniProt P49327); experiment: inhibition of human FAS-TE enzyme activity – biochemical, endpoint fluorescence intensity, uHTS hits, dose response (AID 624327); type: functional;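 further: fluorescence from hydrolysis of an O-methyl fluorescein acyl ester substrate by the enzyme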
T4 sequence (P49327 whole entry): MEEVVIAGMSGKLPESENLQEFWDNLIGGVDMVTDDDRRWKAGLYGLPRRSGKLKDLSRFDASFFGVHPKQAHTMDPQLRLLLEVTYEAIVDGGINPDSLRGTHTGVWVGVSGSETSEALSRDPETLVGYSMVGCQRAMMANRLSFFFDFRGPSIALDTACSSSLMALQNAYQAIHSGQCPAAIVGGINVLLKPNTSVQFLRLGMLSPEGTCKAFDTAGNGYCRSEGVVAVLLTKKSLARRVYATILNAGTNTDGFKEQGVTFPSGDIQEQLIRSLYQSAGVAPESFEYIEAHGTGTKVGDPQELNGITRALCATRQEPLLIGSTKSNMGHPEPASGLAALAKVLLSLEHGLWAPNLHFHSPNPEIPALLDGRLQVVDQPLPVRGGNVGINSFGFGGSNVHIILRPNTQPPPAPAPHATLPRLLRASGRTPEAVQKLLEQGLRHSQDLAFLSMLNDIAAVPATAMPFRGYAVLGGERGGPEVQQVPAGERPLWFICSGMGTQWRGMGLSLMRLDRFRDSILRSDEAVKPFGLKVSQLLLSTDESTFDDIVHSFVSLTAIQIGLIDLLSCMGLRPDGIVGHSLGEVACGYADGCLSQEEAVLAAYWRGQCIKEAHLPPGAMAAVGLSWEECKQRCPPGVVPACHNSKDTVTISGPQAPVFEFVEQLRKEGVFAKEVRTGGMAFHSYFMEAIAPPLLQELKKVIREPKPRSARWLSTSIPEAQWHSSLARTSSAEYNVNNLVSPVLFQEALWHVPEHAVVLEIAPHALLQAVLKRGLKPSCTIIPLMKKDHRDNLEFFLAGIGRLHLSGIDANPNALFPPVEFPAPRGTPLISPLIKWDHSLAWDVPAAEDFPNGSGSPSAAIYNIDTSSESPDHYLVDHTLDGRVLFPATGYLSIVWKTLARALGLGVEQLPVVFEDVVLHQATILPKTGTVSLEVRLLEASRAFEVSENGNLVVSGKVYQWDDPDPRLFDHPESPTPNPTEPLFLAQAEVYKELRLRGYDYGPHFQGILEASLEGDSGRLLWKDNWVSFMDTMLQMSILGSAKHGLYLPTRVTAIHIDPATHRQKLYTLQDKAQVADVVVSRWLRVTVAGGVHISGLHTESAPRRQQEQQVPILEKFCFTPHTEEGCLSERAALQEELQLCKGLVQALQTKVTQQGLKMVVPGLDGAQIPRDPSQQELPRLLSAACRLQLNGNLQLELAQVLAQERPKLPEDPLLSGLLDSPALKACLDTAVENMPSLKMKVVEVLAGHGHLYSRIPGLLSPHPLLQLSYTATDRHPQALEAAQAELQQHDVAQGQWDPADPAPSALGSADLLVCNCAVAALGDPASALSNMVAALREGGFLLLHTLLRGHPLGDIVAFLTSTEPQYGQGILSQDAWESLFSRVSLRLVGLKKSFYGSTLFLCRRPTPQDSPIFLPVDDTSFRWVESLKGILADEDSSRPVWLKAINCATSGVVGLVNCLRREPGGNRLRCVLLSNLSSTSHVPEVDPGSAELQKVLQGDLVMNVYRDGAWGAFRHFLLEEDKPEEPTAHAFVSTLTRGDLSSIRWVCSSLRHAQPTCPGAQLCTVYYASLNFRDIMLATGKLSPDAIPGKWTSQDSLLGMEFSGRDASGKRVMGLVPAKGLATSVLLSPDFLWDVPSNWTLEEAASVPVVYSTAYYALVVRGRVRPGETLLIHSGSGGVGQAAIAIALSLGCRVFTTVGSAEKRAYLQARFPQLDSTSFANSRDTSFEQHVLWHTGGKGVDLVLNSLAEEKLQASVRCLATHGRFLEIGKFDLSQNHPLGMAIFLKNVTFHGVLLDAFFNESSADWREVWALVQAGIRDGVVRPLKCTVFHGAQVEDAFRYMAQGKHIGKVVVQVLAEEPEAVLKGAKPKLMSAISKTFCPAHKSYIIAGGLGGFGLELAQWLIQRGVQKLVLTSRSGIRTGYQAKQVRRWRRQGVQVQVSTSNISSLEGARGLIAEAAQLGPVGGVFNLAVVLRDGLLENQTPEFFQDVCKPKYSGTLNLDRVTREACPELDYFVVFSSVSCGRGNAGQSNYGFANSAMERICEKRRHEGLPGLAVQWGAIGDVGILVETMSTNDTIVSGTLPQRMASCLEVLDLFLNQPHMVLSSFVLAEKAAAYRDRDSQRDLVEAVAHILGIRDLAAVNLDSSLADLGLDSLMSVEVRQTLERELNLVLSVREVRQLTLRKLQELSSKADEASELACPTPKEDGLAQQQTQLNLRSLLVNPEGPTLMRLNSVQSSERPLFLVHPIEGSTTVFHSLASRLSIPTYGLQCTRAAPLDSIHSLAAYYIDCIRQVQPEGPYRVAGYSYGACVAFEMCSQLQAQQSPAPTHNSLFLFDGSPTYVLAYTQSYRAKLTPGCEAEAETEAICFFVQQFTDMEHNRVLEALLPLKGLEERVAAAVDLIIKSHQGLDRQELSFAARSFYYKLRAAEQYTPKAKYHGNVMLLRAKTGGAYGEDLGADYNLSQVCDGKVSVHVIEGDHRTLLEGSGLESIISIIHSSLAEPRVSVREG

[8] = molecular target: T4, Fatty acid synthase; experiment: inhibition of human FAS-TE enzyme activity – biochemical, kinetic fluorescence intensity, dose response (AID 624326); type: functional;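 further: rate of fluorescence rise from hydrolysis of a fluorogenic O-methyl fluorescein ester substrate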
[9] = molecular target: Paired box protein Pax-8 (Homo sapiens, UniProt Q06710); experiment: PAX8 transcriptional activity inhibition in RMG-I – RMG-I cells, luciferase, cherry-pick, dose response (AID 687027); type: functional, cell-based;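 further: luciferase reporter driven by Pax8 target thyroperoxidase promoter measured by SteadyGlo luminescence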
Chain of Paired box protein Pax-8 (Q06710 whole entry): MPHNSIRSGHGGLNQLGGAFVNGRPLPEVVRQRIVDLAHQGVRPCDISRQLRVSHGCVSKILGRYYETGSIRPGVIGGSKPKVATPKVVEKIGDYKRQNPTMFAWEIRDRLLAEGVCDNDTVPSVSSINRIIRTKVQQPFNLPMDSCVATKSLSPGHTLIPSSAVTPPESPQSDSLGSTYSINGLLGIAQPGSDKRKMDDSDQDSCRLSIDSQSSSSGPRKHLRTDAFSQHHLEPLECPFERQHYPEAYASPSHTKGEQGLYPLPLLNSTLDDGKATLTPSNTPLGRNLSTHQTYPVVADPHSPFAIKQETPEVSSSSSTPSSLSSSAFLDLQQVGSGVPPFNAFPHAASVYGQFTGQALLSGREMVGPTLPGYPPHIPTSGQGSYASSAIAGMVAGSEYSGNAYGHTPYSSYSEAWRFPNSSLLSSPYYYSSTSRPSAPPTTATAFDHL

CC(=O)c1cccc2c1N=C(c1[nH]c3ccccc3c1O)C2=O
active: EC50 [1] 116 µM | CC50 [2] > 40 µM | IC50 [3] 15.7 µM | IC50 [4] 13.2 µM

CCC1CCCCN1S(=O)(=O)c1ccc(NC(=O)c2nc(S(C)(=O)=O)ncc2Cl)cc1 (configuration not stated)
active: EC50 [1] 0.66 µM | IC50 [5] 44.8 µM | AC50 [6] 0.341 µM | IC50 [7] 5.75 µM | IC50 [8] 4.03 µM | AC50 [9] 5.67 µM

CCCC[n+]1ccn(C2=C([N-]S(=O)(=O)c3ccc(Cl)cc3)C(=O)c3ccccc3C2=O)c1
active: IC50 [3] 22 µM | IC50 [4] 12.4 µM

Reference: ChEMBL document CHEMBL1201862, “PubChem BioAssay data set” (2004)
